Read-outs that look alike come from different tables or passages of the source.
Key:
CDK4-CYCLIND1 = CDK4-CYCLIND1 (Homo sapiens, UniProt P11802); assay: CDK inhibition assay (microfluidic LabChip, IC50 format)
CDK6-CYCLIND3 = biological target: T1, CDK6-CYCLIND3 (Homo sapiens, UniProt Q00534); assay: as above; format: biochemical
T1 construct: purchased Carna

[1] = CDK4 CyclinD1 IC50, Table 4b, lower part, a second value in parentheses for some compounds
[2] = Table 4b, lower part, read-out: CDK6 CyclinD3 IC50
[3] = CDK4 IC50, Table 4b, upper part
[4] = Table 4b, upper part, read-out: CDK6 IC50
[5] = Racemate Activity CDK4, Table 3, first value of the cell CDK4/CDK6, value of the racemate
[6] = Table 3, second value of the cell CDK4/CDK6, value of the racemate, read-out: Racemate Activity CDK6

T1 sequence (Q00534 whole entry): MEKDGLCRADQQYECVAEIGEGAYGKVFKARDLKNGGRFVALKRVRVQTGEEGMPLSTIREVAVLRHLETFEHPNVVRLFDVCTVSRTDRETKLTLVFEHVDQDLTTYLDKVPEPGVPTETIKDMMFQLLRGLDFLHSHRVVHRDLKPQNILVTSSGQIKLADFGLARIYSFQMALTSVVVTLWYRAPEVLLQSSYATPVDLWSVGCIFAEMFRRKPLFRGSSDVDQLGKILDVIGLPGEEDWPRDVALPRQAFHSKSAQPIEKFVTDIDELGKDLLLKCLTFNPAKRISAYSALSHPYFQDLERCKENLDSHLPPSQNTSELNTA
T1 sequence (P30281 whole entry partner): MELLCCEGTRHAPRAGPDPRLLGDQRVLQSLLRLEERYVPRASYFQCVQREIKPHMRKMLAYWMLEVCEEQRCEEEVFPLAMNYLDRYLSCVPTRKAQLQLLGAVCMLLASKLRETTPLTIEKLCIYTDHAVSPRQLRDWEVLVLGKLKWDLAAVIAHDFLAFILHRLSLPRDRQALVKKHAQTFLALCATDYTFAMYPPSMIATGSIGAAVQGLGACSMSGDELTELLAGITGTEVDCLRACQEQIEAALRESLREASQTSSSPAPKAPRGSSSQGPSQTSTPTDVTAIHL
Sequence of CDK4-CYCLIND1 (P11802 whole entry): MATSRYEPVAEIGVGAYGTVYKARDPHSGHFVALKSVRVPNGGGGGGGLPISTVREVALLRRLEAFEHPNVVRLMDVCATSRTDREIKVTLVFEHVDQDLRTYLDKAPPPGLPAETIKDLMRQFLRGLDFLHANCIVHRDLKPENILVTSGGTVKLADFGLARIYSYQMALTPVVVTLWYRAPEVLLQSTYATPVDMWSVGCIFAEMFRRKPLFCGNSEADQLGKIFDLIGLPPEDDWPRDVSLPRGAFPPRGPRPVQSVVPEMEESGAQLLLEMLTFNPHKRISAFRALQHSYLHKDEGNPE
Sequence of CDK4-CYCLIND1 (P24385 whole entry partner): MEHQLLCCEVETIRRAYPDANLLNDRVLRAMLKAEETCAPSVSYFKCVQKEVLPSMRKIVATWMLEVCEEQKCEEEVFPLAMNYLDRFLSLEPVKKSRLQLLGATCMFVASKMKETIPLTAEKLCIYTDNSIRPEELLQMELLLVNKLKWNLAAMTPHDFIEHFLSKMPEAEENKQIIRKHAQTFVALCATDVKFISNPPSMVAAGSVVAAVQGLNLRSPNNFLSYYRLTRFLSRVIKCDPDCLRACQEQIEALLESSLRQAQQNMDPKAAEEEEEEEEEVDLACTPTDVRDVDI

Row | Structure (SMILES) | IC50 (CDK4-CYCLIND1; [1]) | IC50 (CDK6-CYCLIND3; [2]) | IC50 (CDK4-CYCLIND1; [3]) | IC50 (CDK6-CYCLIND3; [4]) | IC50 (CDK4-CYCLIND1; [5]) | IC50 (CDK6-CYCLIND3; [6])
1 | CN1CCN(c2ccc(Nc3ncc4c(n3)N(C35CC(C3)C5)C(=O)[C@@]3(CCNC3=O)C4)cc2F)CC1 [Example D197, (R)-8-(bicyclo[1.1.1]pentan-1-yl)-2-((3-fluoro-4-(4-methylpiperazin-1-yl)phenyl)amino)-5,8-dihydro-7H-spiro[pyrido[2,3-d]pyrimidine-6,3′-pyrrolidine]-2′,7-dione] | 2220 nM | 5380 nM |  |  |  | 
2 | CN(C)CCOc1ccc(Nc2ncc3c(n2)N(C2CCCC2)C(=O)C2(CCNC2=O)C3)cn1 (stereo not shown) [Example D14, 8-cyclopentyl-2-((6-(2-(dimethylamino)ethoxy)pyridin-3-yl)amino)-5,8-dihydro-7H-spiro[pyrido[2,3-d]pyrimidine-6,3′-pyrrolidine]-2′,7-dione] |  |  | 10.7 nM | 20.7 nM |  | 
3 | O=C1NCCC12Cc1cnc(Nc3ccc(OCCN4CCCC4)c(F)c3)nc1N(C1CCCC1)C2=O (stereo not shown) [Example D16, 8-cyclopentyl-2-((3-fluoro-4-(2-(pyrrolidin-1-yl)ethoxy)phenyl)amino)-5,8-dihydro-7H-spiro[pyrido[2,3-d]pyrimidine-6,3′-pyrrolidine]-2′,7-dione] |  |  | 5.25 nM | 8.81 nM |  | 
4 | O=C1NCCC12Cc1cnc(Nc3ccc(N4CCNCC4)c(F)c3)nc1N(C1CCCC1)C2=O (stereo not shown) [Example D11, 8-cyclopentyl-2-((3-fluoro-4-(piperazin-1-yl)phenyl)amino)-5,8-dihydro-7H-spiro[pyrido[2,3-d]pyrimidine-6,3′-pyrrolidine]-2′,7-dione] |  |  | 2.09 nM | 4.38 nM | 2.1 nM | 3.5 nM
5 | O=C1NCCC12Cc1cnc(Nc3ccc(N4CCC(N5CCOCC5)CC4)c(F)c3)nc1N(C1CCCC1)C2=O (stereo not shown) [Example D38, 8-cyclopentyl-2-((3-fluoro-4-(4-morpholinopiperidin-1-yl)phenyl)amino)-5,8-dihydro-7H-spiro[pyrido[2,3-d]pyrimidine-6,3′-pyrrolidine]-2′,7-dione] |  |  | 3.87 nM | 7.1 nM |  | 
6 | CN1C(=O)CC2(Cc3cnc(Nc4ccc(N5CCNCC5)nc4)nc3N(C3CCCC3)C2=O)C1=O (stereo not shown) [Example D24, 8-cyclopentyl-1′-methyl-2-((6-(piperazin-1-yl)pyridin-3-yl)amino)-5,8-dihydro-7H-spiro[pyrido[2,3-d]pyrimidine-6,3′-pyrrolidine]-2′,5′,7-trione] |  |  | 127 nM | 373 nM |  | 
7 | O=C1NCCC12Cc1cnc(Nc3ccc(N4CC5(CNC5)C4)c(F)c3)nc1N(C1CCCC1)C2=O (stereo not shown) [Example D43] |  |  | 2.42 nM | 4.95 nM |  | 
8 | COc1cc(Nc2ncc3c(n2)N(C2CCCC2)C(=O)C2(CCNC2=O)C3)ccc1N1CCN(C(C)C)CC1 (stereo not shown) [Example D37, 8-cyclopentyl-2-((4-(4-isopropylpiperazin-1-yl)-3-methoxyphenyl)amino)-5,8-dihydro-7H-spiro[pyrido[2,3-d]pyrimidine-6,3′-pyrrolidine]-2′,7-dione] |  |  | 3.18 nM | 8.12 nM |  | 
9 | CN1C(=O)CC2(Cc3cnc(Nc4ccc(OCCN5CCCC5)nc4)nc3N(C3CCCC3)C2=O)C1=O (stereo not shown) [Example D31, 8-cyclopentyl-1′-methyl-2-((6-(2-(pyrrolidin-1-yl)ethoxy)pyridin-3-yl)amino)-5,8-dihydro-7H-spiro[pyrido[2,3-d]pyrimidine-6,3′-pyrrolidine]-2′,5′,7-trione] |  |  | 185 nM | 628 nM |  | 
10 | CC(C)N1CCN(c2ccc(Nc3ncc4c(n3)N(C3CCCC3)C(=O)C3(CC(=O)N(C)C3=O)C4)cc2)CC1 (stereo not shown) [Example D22, 8-cyclopentyl-2-((4-(4-isopropylpiperazin-1-yl)phenyl)amino)-1′-methyl-5,8-dihydro-7H-spiro[pyrido[2,3-d]pyrimidine-6,3′-pyrrolidine]-2′,5′,7-trione] |  |  | 28.6 nM | 129 nM |  | 
11 | CN1CCN(c2ccc(Nc3ncc4c(n3)N(C3CCCC3)C(=O)C3(CCNC3=O)C4)cc2F)CC1 (stereo not shown) [Example D12, 8-cyclopentyl-2-((3-fluoro-4-(4-methylpiperazin-1-yl)phenyl)amino)-5,8-dihydro-7H-spiro[pyrido[2,3-d]pyrimidine-6,3′-pyrrolidine]-2′,7-dione] |  |  | 1.83 nM | 2.86 nM | 1.8 nM | 2.9 nM
12 | CN1CCN(c2ccc(Nc3ncc4c(n3)N(C3CCCC3)C(=O)C3(CCNC3=O)C4)cc2)CC1 (stereo not shown) [Example D4, 8-cyclopentyl-2-((4-(4-methylpiperazin-1-yl)phenyl)amino)-5,8-dihydro-7H-spiro[pyrido[2,3-d]pyrimidine-6,3′-pyrrolidine]-2′,7-dione] |  |  |  | 4.9 nM |  | 
13 | CN1CCN(c2ccc(Nc3ncc4c(n3)N(C3CCCC3)C(=O)C3(CCNC3=O)C4)nc2)CC1 (stereo not shown) [Example D8, 8-cyclopentyl-2-((5-(4-methylpiperazin-1-yl)pyridin-2-yl)amino)-5,8-dihydro-7H-spiro[pyrido[2,3-d]pyrimidine-6,3′-pyrrolidine]-2′,7-dione] |  |  | 2.06 nM | 3.92 nM |  | 
14 | O=C1NCCC12Cc1cnc(Nc3ccc(N4CCNCC4)cc3)nc1N(C1CCCC1)C2=O (stereo not shown) [Example D3, 8-cyclopentyl-2-((4-(piperazin-1-yl)phenyl)amino)-5,8-dihydro-7H-spiro[pyrido[2,3-d]pyrimidine-6,3′-pyrrolidine]-2′,7-dione] |  |  | 2.81 nM | 6.03 nM | 2.81 nM | 6.03 nM
15 | O=C1NCCC12Cc1cnc(Nc3ccc(N4CC5(CNC5)C4)nc3)nc1N(C1CCCC1)C2=O (stereo not shown) [Example D42, 2-((6-(2,6-diazaspiro[3.3]heptan-2-yl)pyridin-3-yl)amino)-8-cyclopentyl-5,8-dihydro-7H-spiro[pyrido[2,3-d]pyrimidine-6,3′-pyrrolidine]-2′,7-dione] |  |  | 2.72 nM | 6.19 nM |  | 
16 | O=C1NCC[C@]12Cc1cnc(Nc3ccc(N4CCNCC4)c(F)c3)nc1N(C13CC(C1)C3)C2=O [Example D196, (R)-8-(bicyclo[1.1.1]pentan-1-yl)-2-((3-fluoro-4-(piperazin-1-yl)phenyl)amino)-5,8-dihydro-7H-spiro[pyrido[2,3-d]pyrimidine-6,3′-pyrrolidine]-2′,7-dione] | 1250 nM | 2400 nM |  |  |  | 
17 | CN1CCN(c2ccc(Nc3ncc4c(n3)N(C3CCCC3)C(=O)C3(CCN(C)C3=O)C4)cc2F)CC1 (stereo not shown) [Example D19, 8-cyclopentyl-2-((3-fluoro-4-(4-methylpiperazin-1-yl)phenyl)amino)-1′-methyl-5,8-dihydro-7H-spiro[pyrido[2,3-d]pyrimidine-6,3′-pyrrolidine]-2′,7-dione] |  |  | 33.6 nM | 97.2 nM |  | 
18 | CC(C)n1cc(-c2ccc(Nc3ncc4c(n3)N(C3CCCC3)C(=O)[C@]3(CCNC3=O)C4)cc2)cn1 [Example D195, (S)-8-cyclopentyl-2-((4-(1-isopropyl-1H-pyrazol-4-yl)phenyl)amino)-5,8-dihydro-7H-spiro[pyrido[2,3-d]pyrimidine-6,3′-pyrrolidine]-2′,7-dione] | 23 nM | 33.7 nM |  |  |  | 
19 | O=C1NCC[C@@]12Cc1cnc(Nc3ccc(N4CCC(N5CCOCC5)CC4)nc3)nc1N(C1CCCC1)C2=O [Example D193, (S)-8-cyclopentyl-2-((6-(4-morpholinopiperidin-1-yl)pyridin-3-yl)amino)-5,8-dihydro-7H-spiro[pyrido[2,3-d]pyrimidine-6,3′-pyrrolidine]-2′,7-dione] | 1.54 nM | 2.32 nM |  |  |  | 
20 | CC(C)N1CCN(c2ccc(Nc3ncc4c(n3)N(C3CCCC3)C(=O)C3(CCNC3=O)C4)cc2)CC1 (stereo not shown) [Example D5] |  |  | 2.64 nM | 5.67 nM |  | 
21 | CN(C)[C@H]1CCN(C(=O)c2ccc(Nc3ncc4c(n3)N(C3CCCC3)C(=O)C3(CCNC3=O)C4)cc2F)C1 (stereo partly drawn) [Example D48, 8-cyclopentyl-2-((4-((S)-3-(dimethylamino)pyrrolidine-1-carbonyl)-3-fluorophenyl)amino)-5,8-dihydro-7H-spiro[pyrido[2,3-d]pyrimidine-6,3′-pyrrolidine]-2′,7-dione] |  |  | 1.95 nM | 5.53 nM |  | 
22 | CN1CCC2(Cc3cnc(Nc4ccc(N5CCNCC5)cc4)nc3N(C3CCCC3)C2=O)C1=O (stereo not shown) [Example D1, 8-cyclopentyl-1′-methyl-2-((4-(piperazin-1-yl)phenyl)amino)-5,8-dihydro-7H-spiro[pyrido[2,3-d]pyrimidine-6,3′-pyrrolidine]-2′,7-dione] |  |  | 27 nM | 84.1 nM |  | 
23 | CN1C(=O)CC2(Cc3cnc(Nc4ccc(N5CCNCC5)cc4)nc3N(C3CCCC3)C2=O)C1=O (stereo not shown) [Example D20, 8-cyclopentyl-1′-methyl-2-((4-(piperazin-1-yl)phenyl)amino)-5,8-dihydro-7H-spiro[pyrido[2,3-d]pyrimidine-6,3′-pyrrolidine]-2′,5′,7-trione] |  |  | 50.7 nM | 198 nM |  | 
24 | O=C1NCCC12Cc1cnc(Nc3ccc(OCCN4CCCCC4)nc3)nc1N(C1CCCC1)C2=O (stereo not shown) [Example D35] |  |  | 7.01 nM | 14.4 nM |  | 
25 | CC(C)N1CCN(c2ccc(Nc3ncc4c(n3)N(C3CCCC3)C(=O)[C@]3(CCNC3=O)C4)cn2)CC1 [Example D151, (S)-8-cyclopentyl-2-((6-(4-isopropylpiperazin-1-yl)pyridin-3-yl)amino)-5,8-dihydro-7H-spiro[pyrido[2,3-d]pyrimidine-6,3′-pyrrolidine]-2′,7-dione] | 1.75 nM | 2.8 nM |  |  |  | 
26 | CC(C)N1CCN(c2ccc(Nc3ncc4c(n3)N(C35CC(C3)C5)C(=O)[C@]3(CCNC3=O)C4)cc2F)CC1 [Example D194, (S)-8-(bicyclo[1.1.1]pentan-1-yl)-2-((3-fluoro-4-(4-isopropylpiperazin-1-yl)phenyl)amino)-5,8-dihydro-7H-spiro[pyrido[2,3-d]pyrimidine-6,3′-pyrrolidine]-2′,7-dione] | 17.4 nM | 31.2 nM |  |  |  | 
27 | O=C1NCC[C@@]12Cc1cnc(N3CC4(CNC4)C3)nc1N(C1CCCC1)C2=O [Example D198, (S)-8-cyclopentyl-2-(2,6-diazaspiro[3.3]heptan-2-yl)-5,8-dihydro-7H-spiro[pyrido[2,3-d]pyrimidine-6,3′-pyrrolidine]-2′,7-dione] |  | 16200 nM |  |  |  | 

Reference: patent publication US20230048132A1, “CYCLIN-DEPENDENT KINASE INHIBITORS” (SPV THERAPEUTICS INC., priority 2018, published 2023)
